Measured values as given in US9732088B2, “C2-carbocyclic iminothiazine dioxides as BACE inhibitors, compositions, and their use” (Merck Sharp & Dohme Corp., priority 2014, dated 2017).

Legend:
[1] = biological target: soluble human BACE-1 catalytic domain (Homo sapiens (Human), UniProt P56817); assay: BACE-1 Ki Assay (BACE-1 HTRF FRET Assay); assay type: biochemical; conditions: Assay 1; Ki calculated from IC50 by Cheng-Prusoff
Method: Assay 1: BACE-1 Ki Assay (BACE-1 HTRF FRET Assay)
The compounds of the invention were determined to be potent inhibitors of BACE-1 using the following assay.
The following reagents were used in this assay. Na^+-Acetate pH 5.0; 1% Brij-35; Glycerol; Dimethyl Sulfoxide (DMSO); Recombinant human soluble BACE-1 catalytic domain (>95% pure); APP Swedish mutant peptide substrate (QSY7-APP^swe-Eu): QSY7-[…]-Europium-amide.
A homogeneous time-resolved FRET assay can be used to determine IC50 values for inhibitors of the soluble human BACE-1 catalytic domain. This assay monitors the increase of 620 nm fluorescence that resulted from BACE-1 cleavage of an APPswedish APP^swe mutant peptide FRET substrate (QSY7-[…]-Europium-amide). This substrate contains an N-terminal QSY7 moiety that serves as a quencher of the C-terminal Europium fluorophore (620 nm Em). In the absence of enzyme activity, 620 nm fluorescence is low in the assay and increased linearly over 3 hours in the presence of uninhibited BACE-1 enzyme. Inhibition of BACE-1 cleavage of the QSY7-APP^swe-Eu substrate by inhibitors is manifested as a suppression of 620 nm fluorescence.
Varying concentrations of inhibitors at 3× the final desired concentration in a volume of […] are preincubated with purified human BACE-1 catalytic domain (3 nM in 10 μl) for 30 minutes at 30° C. in reaction buffer containing 20 mM Na-Acetate pH 5.0, 10% glycerol, 0.1% Brij-35 and 7.5% DSMO. Reactions are initiated by addition of 10 μl of 600 nM QSY7-APP^swe-Eu substrate (200 nM final) to give a final reaction volume of 30 μl in a 384 well Nunc HTRF plate. The reactions are incubated at 30° C. for 1.5 hours. The 620 nm fluorescence is then read on a Rubystar HTRF plate reader (BMG Labtechnologies) using a […] delay followed by a 400 millisecond acquisition time window. Inhibitor IC50 values are derived from non-linear regression analysis of concentration response curves. Ki values are then calculated from IC50 values using the Cheng-Prusoff equation using a previously determined […] of 8 μM for the QSY7-APP^swe-Eu substrate at BACE-1. The example compounds of the invention were measured in this assay.

[2] = tested on: HepG2 cells; assay: In Vitro Phospholipidosis Assay; assay type: cell-based; conditions: 20 μM, 24 hours, normalized to DMSO
Text: [formula] Assay 7: In Vitro Phospholipidosis Assay
Drug-induced phospholipidosis (PL) is characterized by intracellular accumulation of phospholipids with lamellular bodies, and may result from impaired phospholipid metabolism in the lysosome (Anderson et al., 2006, FEBS Letter, 580, 5533-5540), and many compounds known to cause drug-induced PL are also associated with adverse drug reactions. Using a method described in the literature (Bhandari et al., 2008, Assay and Drug Dev. Tech., 6(3), 407-419), an in vitro cellular assay can provide data that can determine the PL potential of test compounds. In this assay, compounds that lower values for mean inclusion count of a fluorescent phospholipid (described below) versus control are associated with reduced potential for PL.
HepG2 cells were dispensed into 96-well collagen I coated plates at an initial density of 2.0×10^5 cells in 200 μL complete culturing medium (MEM Media w/Earle's Balanced Salt Solution supplemented with 10 IU penicillin, 10 μg/mL streptomycin, and 10% heat inactivated fetal bovine serum). Cells were incubated overnight at 37° C. with 5% CO2, 89% humidity prior to treatment.
A solution of fluorescently labeled phospholipid N-(7-nitrobenz-2-oxa-1,3-diazol-4-yl)-1,2-dihexadecanoyl-sn-glycero-3-phosphoethanolamine (NBD-PE) was prepared at a concentration of 10 mM in absolute ethanol. Dissolution of the NBD-PE was facilitated by sonication in a room temperature water bath for 30 minutes. NBD-PE medium was prepared by diluting NBD-PE stock to a final concentration of 50 μM in complete culturing medium, filtering (pore size, 0.22 μm) prior to use.
Compound treatment stocks were prepared in dimethyl sulfoxide at 500× final concentrations. Working treatment solutions were prepared by diluting compound stocks into NBD-PE medium with DMSO serving as the vehicle control. Treatment concentration was 20 μM. Amiodarone ((2-{4-[(2-butyl-1-benzofuran-3-yl)carbonyl]-2,6-diiodophenoxy}ethyl)diethylamine) served as the assay positive control at the same concentration. All treatments were tested in triplicate for 24 hours.
Following treatment, cultures were rinsed once with Hank's Balanced Salt Solution (HBSS) containing no phenol red. Cultures were then incubated for 30 minutes at 37° C. with […] Hoechst 33342 nuclear stain and […] cell tracker orange cytoplasm stain. After incubation, cells were rinsed once with HBSS and then fixed in 2% formalin solution.
Cultures were imaged using the IN Cell Analyzer 2000 imaging system. One set of images were acquired with the 4× objective using the appropriate Hoechst filter settings to acquire a full-well cell count. Another set of images were acquired to evaluate treatment-related phospholipidosis with the 20× objective.
Images were analyzed using custom algorithms created in the IN Cell Workstation software using NBD-PE inclusion count in the cell cytoplasm as and endpoint associated with phospholipidosis. Data were expressed as fold over control, normalized to the DMSO vehicle control response.

[3] = biological target: purified human Cathepsin-D (Homo sapiens (Human), UniProt P07339); assay: Cathepsin-D Assay (time-resolved FRET); assay type: biochemical; conditions: Assay 4; Ki calculated from IC50 by Cheng-Prusoff;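 also: Europium-labelled peptide substrate with QSY7 quencher, cleavage read as 620 nm fluorescence after 30 min preincubation then 30 min reaction at 30 °C, pH 5.0, inhibition lowers signal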
Method: Assay 4: Cathepsin-D Assay
This substrate contains an C-terminal QSY7 moiety that serves as a quencher of the N-terminal Europium fluorophore (620 nm Em). In the absence of enzyme activity, 620 nm fluorescence is low in the assay and increased linearly over 1 hour in the presence of uninhibited Cathepsin-D enzyme. Inhibition of Cathespin D cleavage of the Eu-Aspartyl Protease-QSY7 substrate by inhibitors is manifested as a suppression of 620 nm fluorescence.
Varying concentrations of inhibitors in a volume of 100 nl are preincubated with purified human Cathepsin-D (0.1 nM in 10 μl) for 30 minutes at 30° C. in reaction buffer containing 100 mM Na-Acetate pH 5.0, and 0.02% Brij-35. Reactions are initiated by addition of 10 μl of 100 nM Eu-Aspartyl Protease-QSY7 substrate (50 nM final) to give a final reaction volume of 20 μl in a 384 well Nunc HTRF plate. The reactions are incubated at 30° C. for 30 minutes. The 620 nm fluorescence is then read on a Envision Multilabel plate reader (Perkin-Elmer) using a 200 microsecond delay followed by a 400 microsecond acquisition time window. Inhibitor IC50 values are derived from non-linear regression analysis of concentration response curves.

[4] = biological target: BACE-1 (Homo sapiens (Human), UniProt P56817); assay: BACE-1 Cellular Assay (Aβ in HEK293-APPswe/lon cells); assay type: cell-based; conditions: 4 hours
In short: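 HEK293 cells stably expressing human APP with Swedish and London FAD mutations, cultured at 37° C., 5% CO2. Aβ40 or Aβ42 in conditioned media measured by electrochemiluminescent ELISA (WO2 capture; G2-10 or G2-11 detection). IC50 from variable-slope sigmoidal fit of signal versus compound concentration.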

[5] = biological target: purified human autoBACE-2 (Homo sapiens (Human), UniProt Q9Y5Z0); assay: BACE-2 Assay (BACE-HTRF assay); assay type: biochemical; conditions: Assay 2; Ki calculated from IC50 by Cheng-Prusoff; read-out: BACE2 Ki
Method: The compounds of the invention were determined to be potent inhibitors of BACE-2 using the following assay. Inhibitor IC50s at purified human autoBACE-2 are determined in a time-resolved endpoint proteolysis assay that measures hydrolysis of the QSY7-[…]-Eu-amide FRET peptide substrate (BACE-HTRF assay). BACE-mediated hydrolysis of this peptide results in an increase in relative fluorescence (RFU) at 620 nm after excitation with 320 nm light Inhibitor compounds, prepared at 3× the desired final concentration in 1×BACE assay buffer (20 mM sodium acetate pH 5.0, 10% glycerol, 0.1% Brij-35) supplemented with 7.5% DMSO are pre-incubated with an equal volume of autoBACE-2 enzyme diluted in 1×BACE assay buffer (final enzyme concentration 1 nM) in black 384-well NUNC plates for 30 minutes at 30° C. […] DMSO is present at […] final concentration in the assay. Following laser excitation of sample wells at 320 nm, the fluorescence signal at 620 nm is collected for 400 ms following a 50 μs delay on a RUBYstar HTRF plate reader (BMG Labtechnologies). Raw RFU data is normalized to maximum (1.0 nM BACE/DMSO) and minimum (no enzyme/DMSO) RFU values. IC50 values are determined by nonlinear regression analysis (sigmoidal dose response, variable slope) of percent inhibition data with minimum and maximum values set to 0 and 100 percent respectively. Similar IC50s are obtained when using raw RFU data. The Ki values are calculated from the IC50 using the Cheng-Prusoff equation.

Chain of purified human autoBACE-2 (Q9Y5Z0 63-466): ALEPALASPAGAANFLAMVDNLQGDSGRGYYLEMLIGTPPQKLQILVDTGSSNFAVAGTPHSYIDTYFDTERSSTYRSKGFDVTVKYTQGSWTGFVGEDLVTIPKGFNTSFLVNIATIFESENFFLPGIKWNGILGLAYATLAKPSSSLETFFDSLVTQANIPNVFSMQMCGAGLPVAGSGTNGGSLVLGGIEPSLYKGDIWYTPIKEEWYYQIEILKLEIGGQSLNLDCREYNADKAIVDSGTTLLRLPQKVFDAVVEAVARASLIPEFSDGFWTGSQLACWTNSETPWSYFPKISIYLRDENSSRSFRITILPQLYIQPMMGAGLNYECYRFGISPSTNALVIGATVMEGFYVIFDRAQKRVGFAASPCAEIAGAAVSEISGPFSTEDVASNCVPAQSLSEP
Chain of soluble human BACE-1 catalytic domain (P56817 75-416): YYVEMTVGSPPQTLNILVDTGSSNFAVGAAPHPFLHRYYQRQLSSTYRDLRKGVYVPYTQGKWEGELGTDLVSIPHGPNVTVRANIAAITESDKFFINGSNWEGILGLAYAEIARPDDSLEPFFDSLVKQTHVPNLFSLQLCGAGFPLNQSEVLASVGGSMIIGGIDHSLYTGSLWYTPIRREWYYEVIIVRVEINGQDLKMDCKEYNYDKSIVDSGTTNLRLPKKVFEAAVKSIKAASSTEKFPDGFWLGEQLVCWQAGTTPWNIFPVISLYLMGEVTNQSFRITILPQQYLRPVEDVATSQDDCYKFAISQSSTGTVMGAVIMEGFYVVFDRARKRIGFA
Chain of BACE-1 (P56817 46-501): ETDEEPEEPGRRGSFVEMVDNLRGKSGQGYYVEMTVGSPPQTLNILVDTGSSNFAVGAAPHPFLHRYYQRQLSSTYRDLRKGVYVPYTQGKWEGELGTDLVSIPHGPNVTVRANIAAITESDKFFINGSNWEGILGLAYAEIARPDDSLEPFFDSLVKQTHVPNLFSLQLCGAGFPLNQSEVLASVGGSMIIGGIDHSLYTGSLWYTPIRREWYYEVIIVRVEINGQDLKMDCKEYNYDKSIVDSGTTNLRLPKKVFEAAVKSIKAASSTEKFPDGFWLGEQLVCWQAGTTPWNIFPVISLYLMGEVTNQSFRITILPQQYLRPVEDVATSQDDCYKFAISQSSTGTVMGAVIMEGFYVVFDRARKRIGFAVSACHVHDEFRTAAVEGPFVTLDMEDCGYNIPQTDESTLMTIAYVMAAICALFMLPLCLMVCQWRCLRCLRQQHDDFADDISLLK
Chain of purified human Cathepsin-D (P07339 65-412): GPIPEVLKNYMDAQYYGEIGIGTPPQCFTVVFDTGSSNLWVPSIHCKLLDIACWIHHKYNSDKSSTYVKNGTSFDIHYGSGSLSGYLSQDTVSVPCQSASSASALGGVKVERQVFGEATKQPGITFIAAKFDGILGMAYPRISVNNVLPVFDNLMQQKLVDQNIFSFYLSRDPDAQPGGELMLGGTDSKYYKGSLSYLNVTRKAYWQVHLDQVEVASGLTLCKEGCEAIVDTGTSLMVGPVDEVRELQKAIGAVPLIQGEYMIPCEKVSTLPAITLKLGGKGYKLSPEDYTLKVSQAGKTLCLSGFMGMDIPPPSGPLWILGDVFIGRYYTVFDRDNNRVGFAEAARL

COc1cnc2c(Nc3ccc(F)c([C@]4(C)CS(=O)(=O)[C@@](CF)(C5CC5)C(N)=N4)c3)nccc2c1 [Example 7, N-{3-[(3R,6S)-6-cyclopropyl-6-(fluoromethyl)-5-imino-3-methyl-1,1-dioxidothiomorpholin-3-yl]-4-fluorophenyl}-3-methoxy-1,7-naphthyridin-8 amine] was tested, and the Ki [1] was 7.1 nM, the “In Vitro Phospholipidosis Assay: Mean NBD-PE Inclusion Count (Fold over control)” value [2] was 1.9 Fold over control and the Ki [3] was 1120 nM. The IC50 [4] was 132 nM and the Ki [5] was 3.6 nM.
